In ChEMBL document CHEMBL2380277, “A new synthesis of 4'-resveratrol esters and evaluation of the potential for anti-depressant activity” (Bioorg Med Chem Lett, 2013):
The source made the active and inactive calls. The calls are words filed in the database; no cut-off is given here.

Experiments:
[1] = Half life in human; format: ADME, organism-based; conditions: in vivo
HL-60 = experiment: Cytotoxicity against human HL60 cells; format: functional; conditions: read-out: ED50 (the source's name)
Rattus norvegicus [2] = experiment: Antidepressant activity in Long-Evans rat assessed as effect on swim speed at 20 to 90 mg/kg, sc administered 21 days measured for 6 mins by Porsalt forced-swim test relative to vehicle-treated control; format: functional, organism-based
Rattus norvegicus [3] = experiment: Toxicity in Long-Evans rat assessed as water intake at 20 mg/kg, sc measured after 20 to 21 days (reference value: 50.7 +/- 3.5 mL); format: organism-based; set-up: dose 20 mg/kg, route subcutaneous; conditions: in vivo
Rattus norvegicus [4] = experiment: Toxicity in Long-Evans rat assessed as water intake at 90 mg/kg, sc measured after 8 to 9 days (reference value: 53.3 +/- 2.7 mL); format: organism-based; set-up: dose 90 mg/kg, route subcutaneous; conditions: in vivo
Rattus norvegicus [5] = experiment: Toxicity in Long-Evans rat assessed as change in estrous cycle pattern at 20 to 90 mg/kg, sc measured for 8 days by vaginal histological analysis; format: organism-based; set-up: dose 20-90 mg/kg, route subcutaneous; conditions: in vivo, 192 h
Rattus norvegicus [6] = experiment: Toxicity in Long-Evans rat assessed as hypothalamic aromatase level at 20 mg/kg, sc measured per mg of protein measured for 21 days (reference value: 60 +/- 6.1 pmol/hr); format: organism-based; set-up: dose 20 mg/kg, route subcutaneous; conditions: in vivo, 504 h
Rattus norvegicus [7] = experiment: Toxicity in Long-Evans rat assessed as food intake at 20 mg/kg, sc measured after 8 to 9 days (reference value: 33.1 +/- 1.5 g); format: organism-based; set-up: dose 20 mg/kg, route subcutaneous; conditions: in vivo
Rattus norvegicus [8] = experiment: Toxicity in Long-Evans rat assessed as hypothalamic aromatase level at 90 mg/kg, sc measured per mg of protein measured for 21 days (reference value: 60 +/- 6.1 pmol/hr); format: organism-based; set-up: dose 90 mg/kg, route subcutaneous; conditions: in vivo, 504 h
Rattus norvegicus [9] = experiment: Toxicity in Long-Evans rat assessed as food intake at 90 mg/kg, sc measured after 20 to 21 days (reference value: 33.8 +/- 1.8 g); format: organism-based; set-up: dose 90 mg/kg, route subcutaneous; conditions: in vivo
Rattus norvegicus [10] = experiment: Toxicity in Long-Evans rat assessed as white adipose tissue weight/body weight ratio at 20 to 90 mg/kg, sc measured after 21 days; format: organism-based; set-up: dose 20-90 mg/kg, route subcutaneous; conditions: in vivo, 504 h
Rattus norvegicus [11] = experiment: Antidepressant activity in Long-Evans rat assessed as effect on number of boli excreted at 20 to 90 mg/kg, sc administered 21 days measured for 6 mins by Porsalt forced-swim test relative to vehicle-treated control; format: functional, organism-based
Rattus norvegicus [12] = experiment: Antidepressant activity in Long-Evans rat assessed as effect on dives at 20 to 90 mg/kg, sc administered 21 days measured for 6 mins by Porsalt forced-swim test relative to vehicle-treated control; format: functional, organism-based
Rattus norvegicus [13] = experiment: Toxicity in Long-Evans rat assessed as white adipose tissue weight at 20 to 90 mg/kg, sc measured after 21 days; format: organism-based; set-up: dose 20-90 mg/kg, route subcutaneous; conditions: in vivo, 504 h
Rattus norvegicus [14] = experiment: Antidepressant activity in Long-Evans rat assessed as effect on inverts at 20 to 90 mg/kg, sc administered 21 days measured for 6 mins by Porsalt forced-swim test relative to vehicle-treated control; format: functional, organism-based
Rattus norvegicus [15] = experiment: Toxicity in Long-Evans rat assessed as food intake at 90 mg/kg, sc measured after 8 to 9 days (reference value: 33.1 +/- 1.5 g); format: organism-based; set-up: dose 90 mg/kg, route subcutaneous; conditions: in vivo
Rattus norvegicus [16] = experiment: Toxicity in Long-Evans rat assessed as water intake at 20 mg/kg, sc measured after 8 to 9 days (reference value: 53.3 +/- 2.7 mL); format: organism-based; set-up: dose 20 mg/kg, route subcutaneous; conditions: in vivo
Rattus norvegicus [17] = experiment: Toxicity in Long-Evans rat assessed as food intake at 20 mg/kg, sc measured after 20 to 21 days (reference value: 33.8 +/- 1.8 g); format: organism-based; set-up: dose 20 mg/kg, route subcutaneous; conditions: in vivo
Rattus norvegicus [18] = experiment: Antidepressant activity in Long-Evans rat assessed as mobile index at 20 mg/kg, sc administered 21 days measured for 6 mins by Porsalt forced-swim test (reference value: 286 +/- 8.7 secs); format: functional; conditions: route subcutaneous
Rattus norvegicus [19] = experiment: Toxicity in Long-Evans rat assessed as water intake at 90 mg/kg, sc measured after 20 to 21 days (reference value: 50.7 +/- 3.5 mL); format: organism-based; set-up: dose 90 mg/kg, route subcutaneous; conditions: in vivo
Rattus norvegicus [20] = experiment: Antidepressant activity in Long-Evans rat assessed as mobile index at 90 mg/kg, sc administered 21 days measured for 6 mins by Porsalt forced-swim test (reference value: 286 +/- 8.7 secs); format: functional; conditions: route subcutaneous

Work on `Oc1ccc(/C=C/c2cc(O)cc(O)c2)cc1` [RESVERATROL] yielded a half-life [1] of 30 min and an EC50 (HL-60) of 22 µM.

In the case of `CC(=O)Oc1ccc(/C=C/c2cc(O)cc(O)c2)cc1`, the Activity (Rattus norvegicus [2]) is reported as “Active”, the Activity (Rattus norvegicus [3]) is reported as 50.9 mL and the Activity (Rattus norvegicus [4]) is reported as 56.7 mL. The Activity (Rattus norvegicus [5]) was “Non-toxic”, the Activity (Rattus norvegicus [6]) was 71 pmol/h and the Activity (Rattus norvegicus [7]) was 34.3 g. The Activity (Rattus norvegicus [8]) was 73 pmol/h, the Activity (Rattus norvegicus [9]) was 36.9 g and the Ratio (Rattus norvegicus [10]) was 2.4. The Activity (Rattus norvegicus [11]) was “Active”, the Activity (Rattus norvegicus [12]) was “Active” and the Activity (Rattus norvegicus [13]) was 6.6 g. The Activity (Rattus norvegicus [14]) was “Active”, the Activity (Rattus norvegicus [15]) was 35.2 g and the Activity (Rattus norvegicus [16]) was 52.1 mL. It also gave an Activity (Rattus norvegicus [17]) of 35.2 g, a Time (Rattus norvegicus [18]) of 312 s and an Activity (Rattus norvegicus [19]) of 55.8 mL. It also gave a Time (Rattus norvegicus [20]) of 319 s and an EC50 (HL-60) of 17 µM.
